Assay results reported in the NIST ThermoML archive (doi:10.1021/je034062r).

Experiment: xn = mol fraction of the nth substance listed
Conditions: for surface tension liquid-gas: Pendant drop shape; for mass density: Liquid

C1CCCCC1 [cyclohexane] + CC(C)=O
x1 = 1
Conditions | mass density [kg/m3] | surface tension liquid-gas [mN/m]
287.81 K | – | 25.34
288.15 K | 783.2 | –
297.82 K | – | 24.2
298.15 K | 773.9 | –
307.86 K | – | 23.02
308.15 K | 764.4 | –
317.86 K | – | 21.84
318.15 K | 754.8 | –

CC(C)=O [acetone] + C1CCCCC1
Conditions | mass density, 288.15 K [kg/m3] | mass density, 298.15 K [kg/m3] | mass density, 308.15 K [kg/m3] | mass density, 318.15 K [kg/m3] | surface tension liquid-gas, 287.81 K [mN/m] | surface tension liquid-gas, 297.82 K [mN/m] | surface tension liquid-gas, 307.86 K [mN/m] | surface tension liquid-gas, 317.86 K [mN/m]
x2 = 0 | 798.2 | 787 | 775.4 | 762.5 | 23.94 | 22.78 | 21.59 | 20.33
x2 = 0.1002 | 790 | 779.7 | 768.4 | 756.9 | 23.54 | 22.25 | 21.03 | 19.91
x2 = 0.2001 | 786.6 | 775.3 | 764.2 | 753 | 23.19 | 22.02 | 20.78 | 19.63
x2 = 0.2993 | 783.2 | 772.3 | 761.4 | 750.2 | 23.23 | 22.02 | 20.82 | 19.63
x2 = 0.3979 | 781.1 | 769.7 | 759.6 | 748.6 | 23.33 | 22.08 | 20.89 | 19.7
x2 = 0.4964 | 779.7 | 769.2 | 758.6 | 747.8 | 23.58 | 22.22 | 21.14 | 20
x2 = 0.6 | 778.9 | 768.6 | 758.2 | 747.6 | 23.91 | 22.53 | 21.35 | 20.3
x2 = 0.6975 | 778.9 | 768.7 | 759.9 | 748.3 | 24.31 | 22.84 | 21.6 | 20.56
x2 = 0.7993 | 779.4 | 769.5 | 759.6 | 749.6 | 24.69 | 23.24 | 22.08 | 21.04
x2 = 0.8994 | 780.7 | 771.1 | 761.4 | 751.6 | 25.12 | 23.82 | 22.58 | 21.46
